The source of these data is US7872005B2, “2-substituted heteroaryl compounds” (Synta Pharmaceuticals Corporation, priority 2004, dated 2011).

This assay concerns colitis in C.B-17 SCID mice. The assay is described as follows: CD4+ CD45Rb high T cell-reconstituted SCID colitis model mice. The assay is classed as in vivo, mouse. The procedure: Treatment of Crohn's disease in CD4^+ CD45Rb^high T cell-reconstituted SCID colitis model mice: Spleen cells were prepared from normal female BALB/c mice. For cell purification, the following anti-mouse antibodies were used to label non-CD4^+ T cells: B220 (RA3-6B2), CD11b (M1/70), and CD8α (53-6.72). All antibodies were obtained from BioSource (Camarillo, Calif.). M450 anti-rat IgG-coated magnetic beads (Dynal, Oslo, Norway) were used to bind the antibodies and negative selection was accomplished using an MPC-1 magnetic concentrator. The enriched CD4^+ cells were then labeled for cell sorting with FITC-conjugated CD45RB (16A, Pharmingen, San Diego, Calif.) and PE-conjugated CD4 (CT-CD4, Caltag, Burlingame, Calif.). CD4^+ CD45RB^high cells were operationally defined as the upper 40% of CD45Rb-staining CD4^+ cells and sorted under sterile conditions by flow cytometry. Harvested cells were resuspended at 4×10^6/mL in PBS and injected 100 μL intraperitoneally into female C.B-17 SCID mice. Pyrimidine compounds of this invention (e.g., Compound 12) and/or vehicle was orally administered once a day, 5 days per week, starting the day following the transfer. The transplanted SCID mice were weighed weekly and their clinical condition was monitored.
Colon tissue samples were fixed in 10% buffered formalin and embedded in paraffin. Sections (4 μm) collected from ascending, transverse, and descending colon were cut and stained with hematoxylin and eosin. The severity of colitis was determined based on histological examination of the distal colon sections, whereby the extent of colonic inflammation was graded on a scale of 0-3 in each of four criteria: crypt elongation, cell infiltration, depletion of goblet cells, and the number of crypt abscesses.
LP lymphocytes were isolated from freshly obtained colonic specimens. After removal of payer's patches, the colon was washed in Ca/Mg-free HBSS, cut into 0.5 cm pieces and incubated twice in HBSS containing EDTA (0.75 mM), DTT (1 mM), and antibiotics (amphotericin 2.5 μg/mL, gentamicin 50 μg/mL from Sigma) at 37° C. for 15 min. Next, the tissue was digested further in RPMI containing 0.5 mg/mL collagenase D, 0.01 mg/mL DNase I (Boehringer Manheim), and antibiotics at 37° C. LP cells were then layered on a 40-100% Percoll gradient (Pharmacia, Uppsala, Sweden), and lymphocyte-enriched populations were isolated from the cells at the 40-100% interface.
To measure cytokine production, 48-well plates were coated with 10 μg/mL murine anti-CD3ε antibody (145-2C11) in carbonate buffer (PH 9.6) overnight at 4° C. […] Murine IFNγ was measured using an ELISA kit from Endogen (Cambridge, Mass.), according to the manufacturer's instructions.

With `Cc1cccc(/C=N/Nc2cc(N3CCOCC3)nc(CCOC(=O)Nc3cccc(C(F)(F)F)c3)n2)c1` [Compound 12, (3-Trifluoromethyl-phenyl)-carbamic acid 2-{4-[N′-(3-methyl-benzylidene)-hydrazino]-6-morpholin-4-yl-pyrimidin-2-yl}-ethyl ester], the “IFNγ production by LP cells in response to anti-CD3 and anti-CD28 antibody” value (LP cells from treated mice, ex vivo, 48 h culture) is listed as “greatly diminished the production”. Further, where the note is “oral, once a day, 5 days per week, compared to vehicle control”, the “colonic inflammation (histological analysis)” value is recorded as “reduced colonic inflammation”. Under “oral, consistent with histological score”, the colon-to-body weight ratio result was “attenuation”. Besides, for the setting “oral, dose of 10 mg/kg”, the “suppressive effect on colonic inflammation at 10 mg/kg” value was “substantial reduction”.
